Test [1] deals with poly(A)poly(U) (RNA, polymer) A/U. In words: absorbance titration. Conditions: Na+ (NaCl 0.1 M), NaCac 2.5 mM.
Test [2] relates to poly(A)2poly(U) (RNA triple helix) (RNA, polymer) A/U. The test is described as follows: absorbance titration. Conditions: Na+ (NaCl 0.1 M); NaCac 2.5 mM, pH 7.0.
Test [3] deals with Tel-23 (DNA telomeric G4) (DNA, G4) TAGGGTTAGGGTTAGGGTTAGGG
In words: absorbance titration.

Another test concerns poly(A) (RNA, polymer) A. In words: absorbance titration. The conditions noted are these: Na+ (NaCl 0.1 M), NaCac 2.5 mM, pH 7.0.
For test [4], the target named is T1, bovine serum albumin (BSA) (Bos taurus, UniProt P02769).
T1 construct: gene ALB
The test is described as follows: BSA intrinsic fluorescence quenching titration ([…] °C), […] model; no adduct by ESI-MS. Type of test: binding.

T1 sequence (P02769 25-607): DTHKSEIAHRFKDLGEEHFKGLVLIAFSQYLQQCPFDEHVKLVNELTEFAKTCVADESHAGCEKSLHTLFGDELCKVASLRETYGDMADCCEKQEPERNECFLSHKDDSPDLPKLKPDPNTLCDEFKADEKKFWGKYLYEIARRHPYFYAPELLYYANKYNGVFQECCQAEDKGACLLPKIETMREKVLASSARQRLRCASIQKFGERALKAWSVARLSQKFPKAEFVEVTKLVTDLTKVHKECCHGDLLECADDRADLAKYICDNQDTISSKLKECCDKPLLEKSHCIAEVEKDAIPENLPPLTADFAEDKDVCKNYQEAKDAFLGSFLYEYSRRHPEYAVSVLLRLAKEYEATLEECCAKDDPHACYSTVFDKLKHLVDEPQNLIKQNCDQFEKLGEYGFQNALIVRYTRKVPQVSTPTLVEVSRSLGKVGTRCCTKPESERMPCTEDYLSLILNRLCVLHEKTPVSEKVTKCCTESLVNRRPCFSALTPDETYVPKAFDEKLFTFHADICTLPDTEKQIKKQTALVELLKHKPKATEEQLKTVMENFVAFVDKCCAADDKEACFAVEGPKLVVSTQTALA

As to `CCN1[C]N(Cc2c3ccccc3cc3ccccc23)C=C1.CCN1[C]N(Cc2c3ccccc3cc3ccccc23)C=C1.[Ag+]`, the “Kpoly(A)poly(U)” value in test [1] (pH 7.0, 25.0 °C, apparent, per base pair, per base) is reported as “(1.5 ± 3) × 10^3 M^-1”. Moreover, the binding result in test [2] was “no”; in test [3] (very slight spectral variations, conclusions state no interaction), “weak”; in the test on poly(A) (RNA, polymer) A, “no”.
Take `CCN1[C]N(Cc2c3ccccc3cc3ccccc23)C=C1.CCN1[C]N(Cc2c3ccccc3cc3ccccc23)C=C1.[Au+]`: the binding result is on record as “yes” in test [1] (pH 7.0, external binding, fit not converging); “yes” in test [3] (unselective outer binding, fit not converging); “yes” in the test with poly(A) (RNA, polymer) A (external binding, fit not converging).
`CCn1ccn(Cc2c3ccccc3cc3ccccc23)[c]1=[Ag]([Cl])=[c]1n(CC)ccn1Cc1c2ccccc2cc2ccccc12` [[Ag(EIA)2]Cl, bis(1-(anthracen-9-ylmethyl)-3-ethylimidazol-2-ylidene) silver chloride]: the “BSA intrinsic fluorescence quenching titration (15-50 °C), 1:1 model; no adduct” value in test [4] is on record as “the silver complex interacts with the protein but with a reversible weak process based on electrostatics”.

These data come from paper PMC7699860 (Molecules, 2020).
